Assay results taken from publication PMC3883290, “Functional characterization in Xenopus oocytes of Na^+ transport systems from durum wheat reveals diversity among two HKT1;4 transporters” (Journal of Experimental Botany, 2013).

Biological target: T1, TdHKT1;4-2 (Triticum turgidum, UniProt U5YMY4)
T1 construct: full-length coding region (ORF 1686 bp, 562 residues as printed) in pGEMXho, cRNA expressed in Xenopus laevis oocytes
T1 sequence (U5YMY4 1-561): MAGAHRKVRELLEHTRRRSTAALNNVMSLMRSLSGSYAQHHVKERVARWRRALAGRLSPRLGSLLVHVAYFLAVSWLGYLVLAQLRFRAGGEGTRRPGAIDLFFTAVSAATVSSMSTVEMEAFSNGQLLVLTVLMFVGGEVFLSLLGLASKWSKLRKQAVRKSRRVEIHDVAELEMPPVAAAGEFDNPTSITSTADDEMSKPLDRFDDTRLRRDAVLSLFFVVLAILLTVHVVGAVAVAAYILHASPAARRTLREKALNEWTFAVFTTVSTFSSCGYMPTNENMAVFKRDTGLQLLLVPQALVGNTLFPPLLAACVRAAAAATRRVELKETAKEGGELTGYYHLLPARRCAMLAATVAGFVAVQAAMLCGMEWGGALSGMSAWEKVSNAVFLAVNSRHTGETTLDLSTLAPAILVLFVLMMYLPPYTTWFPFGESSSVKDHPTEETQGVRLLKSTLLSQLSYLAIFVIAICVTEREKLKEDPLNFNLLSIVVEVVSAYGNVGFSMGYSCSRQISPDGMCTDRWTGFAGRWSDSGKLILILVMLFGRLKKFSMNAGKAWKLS
Test: two-electrode voltage clamp, Xenopus oocytes
Type: cell-based
Settings: 500 µM quinine; 1 mM external Na+ (glutamate salt); pH 5.5; inward and outward currents

Question: `C=C[C@H]1CN2CC[C@H]1C[C@H]2[C@H](O)c1ccnc2ccc(OC)cc12` [quinine] was tested. Which “% decrease of currents at 500 μM” value did it give?
Answer: ~ 25%
